In patent publication US12343326B2, “Psychoactive medicines and their use for treating psychiatric and neurological conditions and disorders” (Transcend Therapeutics, Inc., priority 2021, dated 2025):

What was measured:
Experiment in all cases: β-arrestin based GPCR screen (PathHunter / GPCRmax), antagonist mode
168 GPCRs [1] = target: 168 GPCRs (Homo sapiens, UniProt P30872)
168 GPCRs [2] = target: 168 GPCRs (Homo sapiens, UniProt P21730); settings: C5AR1, Antagonist
168 GPCRs [3] = target: 168 GPCRs (Homo sapiens, UniProt P25024)
168 GPCRs [4] = target: 168 GPCRs (Homo sapiens, UniProt Q9HB89); settings: NMU1R
168 GPCRs [5] = target: 168 GPCRs (Homo sapiens, UniProt Q03431)
168 GPCRs [6] = target: 168 GPCRs (Homo sapiens, UniProt P23945); settings: FSHR
168 GPCRs [7] = target: 168 GPCRs (Homo sapiens, UniProt P25101); settings: EDNRA
168 GPCRs [8] = target: 168 GPCRs (Homo sapiens, UniProt P43220); settings: GLP1R
168 GPCRs [9] = target: 168 GPCRs (Homo sapiens, UniProt P46663); settings: BDKRB1, Antagonist
168 GPCRs [10] = target: 168 GPCRs (Homo sapiens, UniProt Q15077)
168 GPCRs [11] = target: 168 GPCRs (Homo sapiens, UniProt Q96G91)
168 GPCRs [12] = target: T1, 168 GPCRs (Homo sapiens, UniProt Q5NUL3)
T1 sequence (Q5NUL3 1-361): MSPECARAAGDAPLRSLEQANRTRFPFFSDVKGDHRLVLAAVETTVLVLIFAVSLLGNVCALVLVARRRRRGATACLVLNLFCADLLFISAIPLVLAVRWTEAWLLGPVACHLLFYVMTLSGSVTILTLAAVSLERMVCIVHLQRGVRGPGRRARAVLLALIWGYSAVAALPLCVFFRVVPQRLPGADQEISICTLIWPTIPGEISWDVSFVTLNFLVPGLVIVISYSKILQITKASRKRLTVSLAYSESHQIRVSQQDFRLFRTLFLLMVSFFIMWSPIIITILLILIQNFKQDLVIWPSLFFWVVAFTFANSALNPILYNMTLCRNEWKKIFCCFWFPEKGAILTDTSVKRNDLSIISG

168 GPCRs [13] = target: 168 GPCRs (Homo sapiens, UniProt Q9H244)
168 GPCRs [14] = target: 168 GPCRs (Homo sapiens, UniProt P32239); settings: CCKBR, Antagonist
168 GPCRs [15] = target: 168 GPCRs (Homo sapiens, UniProt Q9P296); settings: C5L2, Antagonist
168 GPCRs [16] = target: 168 GPCRs (Homo sapiens, UniProt P35414); settings: AGTRL1, Antagonist
168 GPCRs [17] = target: 168 GPCRs (Homo sapiens, UniProt P51679); settings: CCR4, Antagonist
168 GPCRs [18] = target: 168 GPCRs (Homo sapiens, UniProt P51582)
168 GPCRs [19] = target: 168 GPCRs (Homo sapiens, UniProt Q969F8); settings: KISS1R
Chain of 168 GPCRs (Homo sapiens, UniProt Q969F8) (Q969F8 whole entry): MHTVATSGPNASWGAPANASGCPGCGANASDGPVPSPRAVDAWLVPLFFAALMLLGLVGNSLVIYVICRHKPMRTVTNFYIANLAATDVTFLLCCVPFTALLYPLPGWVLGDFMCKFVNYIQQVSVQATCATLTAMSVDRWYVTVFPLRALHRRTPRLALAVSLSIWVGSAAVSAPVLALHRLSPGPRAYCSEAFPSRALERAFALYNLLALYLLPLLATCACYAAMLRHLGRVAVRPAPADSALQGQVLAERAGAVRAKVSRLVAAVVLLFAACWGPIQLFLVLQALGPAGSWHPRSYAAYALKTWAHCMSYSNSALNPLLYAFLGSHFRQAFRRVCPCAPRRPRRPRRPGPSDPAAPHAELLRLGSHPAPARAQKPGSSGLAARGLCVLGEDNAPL

Chain of 168 GPCRs (Homo sapiens, UniProt P30872) (P30872 whole entry): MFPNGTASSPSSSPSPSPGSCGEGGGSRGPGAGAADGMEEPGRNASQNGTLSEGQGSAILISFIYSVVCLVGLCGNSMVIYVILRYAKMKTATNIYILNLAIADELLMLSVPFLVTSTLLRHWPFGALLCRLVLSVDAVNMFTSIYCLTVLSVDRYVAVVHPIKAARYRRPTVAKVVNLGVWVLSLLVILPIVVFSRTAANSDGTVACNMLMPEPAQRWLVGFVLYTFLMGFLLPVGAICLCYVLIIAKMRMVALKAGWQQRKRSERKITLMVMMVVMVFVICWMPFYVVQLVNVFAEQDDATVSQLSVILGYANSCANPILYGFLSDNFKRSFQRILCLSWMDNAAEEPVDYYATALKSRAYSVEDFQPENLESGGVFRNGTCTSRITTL
Chain of 168 GPCRs (Homo sapiens, UniProt Q96G91) (Q96G91 whole entry): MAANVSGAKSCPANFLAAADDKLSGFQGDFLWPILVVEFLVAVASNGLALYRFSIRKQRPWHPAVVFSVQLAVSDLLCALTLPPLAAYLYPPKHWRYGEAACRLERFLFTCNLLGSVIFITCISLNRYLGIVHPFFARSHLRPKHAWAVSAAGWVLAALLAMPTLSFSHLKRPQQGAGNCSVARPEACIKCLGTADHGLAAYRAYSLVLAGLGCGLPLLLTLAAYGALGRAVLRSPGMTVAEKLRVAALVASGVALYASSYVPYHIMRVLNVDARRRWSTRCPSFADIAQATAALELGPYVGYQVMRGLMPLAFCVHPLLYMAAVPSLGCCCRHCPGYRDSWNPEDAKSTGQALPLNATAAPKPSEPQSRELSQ
Chain of 168 GPCRs (Homo sapiens, UniProt P32239) (P32239 whole entry): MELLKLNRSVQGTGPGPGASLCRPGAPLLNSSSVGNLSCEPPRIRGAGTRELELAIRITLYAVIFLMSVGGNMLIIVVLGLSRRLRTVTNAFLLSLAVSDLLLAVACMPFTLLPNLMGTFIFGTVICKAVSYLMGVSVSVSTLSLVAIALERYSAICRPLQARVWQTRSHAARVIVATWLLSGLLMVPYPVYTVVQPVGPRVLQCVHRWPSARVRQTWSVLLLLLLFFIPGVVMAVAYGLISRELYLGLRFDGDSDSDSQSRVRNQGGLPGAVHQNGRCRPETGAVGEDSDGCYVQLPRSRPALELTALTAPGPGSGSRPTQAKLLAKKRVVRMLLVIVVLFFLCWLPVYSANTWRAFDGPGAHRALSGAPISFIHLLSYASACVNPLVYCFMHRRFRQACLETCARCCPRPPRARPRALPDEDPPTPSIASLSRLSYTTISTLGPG
Chain of 168 GPCRs (Homo sapiens, UniProt Q9P296) (Q9P296 whole entry): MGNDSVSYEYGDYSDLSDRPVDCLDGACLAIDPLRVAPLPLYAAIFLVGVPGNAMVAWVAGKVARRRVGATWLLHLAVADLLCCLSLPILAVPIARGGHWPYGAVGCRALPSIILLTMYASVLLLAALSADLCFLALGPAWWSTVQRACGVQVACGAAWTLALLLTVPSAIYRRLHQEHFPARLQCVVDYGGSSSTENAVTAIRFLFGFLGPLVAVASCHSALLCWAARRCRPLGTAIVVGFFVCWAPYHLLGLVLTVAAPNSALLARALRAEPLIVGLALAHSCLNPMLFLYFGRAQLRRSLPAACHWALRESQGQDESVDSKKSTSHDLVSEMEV
Chain of 168 GPCRs (Homo sapiens, UniProt P25101) (P25101 21-427): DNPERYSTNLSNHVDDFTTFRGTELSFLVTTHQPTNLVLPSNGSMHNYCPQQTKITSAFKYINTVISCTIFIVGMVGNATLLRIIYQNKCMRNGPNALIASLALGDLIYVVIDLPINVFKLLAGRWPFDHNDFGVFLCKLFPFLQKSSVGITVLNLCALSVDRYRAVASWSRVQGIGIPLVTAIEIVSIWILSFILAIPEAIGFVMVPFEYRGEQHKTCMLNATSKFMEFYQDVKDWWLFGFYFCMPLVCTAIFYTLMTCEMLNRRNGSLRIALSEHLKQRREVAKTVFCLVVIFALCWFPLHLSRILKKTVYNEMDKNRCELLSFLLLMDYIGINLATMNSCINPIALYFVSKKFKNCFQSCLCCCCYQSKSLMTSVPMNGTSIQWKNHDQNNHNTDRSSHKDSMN
Chain of 168 GPCRs (Homo sapiens, UniProt P25024) (P25024 whole entry): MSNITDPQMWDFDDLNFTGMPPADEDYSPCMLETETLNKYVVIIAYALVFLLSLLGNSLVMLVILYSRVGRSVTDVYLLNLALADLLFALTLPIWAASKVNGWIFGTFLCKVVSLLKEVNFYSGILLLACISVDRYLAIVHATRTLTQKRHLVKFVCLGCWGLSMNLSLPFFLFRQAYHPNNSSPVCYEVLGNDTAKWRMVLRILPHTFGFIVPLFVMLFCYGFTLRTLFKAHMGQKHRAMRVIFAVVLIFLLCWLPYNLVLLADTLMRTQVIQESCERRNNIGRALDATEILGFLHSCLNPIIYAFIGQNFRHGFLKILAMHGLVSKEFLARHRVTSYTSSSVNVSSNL
Chain of 168 GPCRs (Homo sapiens, UniProt P23945) (P23945 18-695): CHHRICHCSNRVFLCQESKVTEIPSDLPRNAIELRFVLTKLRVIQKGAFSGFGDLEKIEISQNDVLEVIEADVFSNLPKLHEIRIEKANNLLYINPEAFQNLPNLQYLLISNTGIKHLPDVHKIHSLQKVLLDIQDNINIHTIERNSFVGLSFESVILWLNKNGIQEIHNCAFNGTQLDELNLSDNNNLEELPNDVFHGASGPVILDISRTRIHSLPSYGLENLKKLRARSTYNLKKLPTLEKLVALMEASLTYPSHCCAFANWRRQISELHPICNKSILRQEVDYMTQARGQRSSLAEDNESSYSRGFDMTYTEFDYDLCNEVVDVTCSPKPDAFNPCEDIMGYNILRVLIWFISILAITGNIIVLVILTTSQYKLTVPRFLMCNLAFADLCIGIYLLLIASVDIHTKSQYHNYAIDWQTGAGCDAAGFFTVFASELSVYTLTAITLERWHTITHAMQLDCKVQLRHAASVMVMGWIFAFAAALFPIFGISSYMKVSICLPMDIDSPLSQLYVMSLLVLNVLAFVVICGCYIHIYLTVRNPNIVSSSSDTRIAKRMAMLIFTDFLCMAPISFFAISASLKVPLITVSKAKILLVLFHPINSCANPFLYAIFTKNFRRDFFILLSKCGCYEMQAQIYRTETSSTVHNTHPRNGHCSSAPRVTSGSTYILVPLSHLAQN
Chain of 168 GPCRs (Homo sapiens, UniProt Q03431) (Q03431 27-593): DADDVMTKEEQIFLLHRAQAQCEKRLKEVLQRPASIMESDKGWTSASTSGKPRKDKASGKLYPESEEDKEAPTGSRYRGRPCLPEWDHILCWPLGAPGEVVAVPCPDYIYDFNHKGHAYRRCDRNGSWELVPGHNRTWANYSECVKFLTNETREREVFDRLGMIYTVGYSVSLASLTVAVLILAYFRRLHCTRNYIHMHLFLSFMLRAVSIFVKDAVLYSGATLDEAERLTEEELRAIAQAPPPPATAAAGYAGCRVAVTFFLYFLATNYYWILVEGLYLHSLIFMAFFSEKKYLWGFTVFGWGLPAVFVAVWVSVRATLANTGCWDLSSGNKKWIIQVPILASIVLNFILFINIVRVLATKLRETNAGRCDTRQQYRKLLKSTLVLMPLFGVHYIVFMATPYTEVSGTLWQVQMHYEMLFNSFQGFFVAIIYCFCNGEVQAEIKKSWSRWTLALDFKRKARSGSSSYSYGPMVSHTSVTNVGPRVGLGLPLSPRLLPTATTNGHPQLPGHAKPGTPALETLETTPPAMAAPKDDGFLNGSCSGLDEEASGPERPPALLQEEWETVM
Chain of 168 GPCRs (Homo sapiens, UniProt Q15077) (Q15077 whole entry): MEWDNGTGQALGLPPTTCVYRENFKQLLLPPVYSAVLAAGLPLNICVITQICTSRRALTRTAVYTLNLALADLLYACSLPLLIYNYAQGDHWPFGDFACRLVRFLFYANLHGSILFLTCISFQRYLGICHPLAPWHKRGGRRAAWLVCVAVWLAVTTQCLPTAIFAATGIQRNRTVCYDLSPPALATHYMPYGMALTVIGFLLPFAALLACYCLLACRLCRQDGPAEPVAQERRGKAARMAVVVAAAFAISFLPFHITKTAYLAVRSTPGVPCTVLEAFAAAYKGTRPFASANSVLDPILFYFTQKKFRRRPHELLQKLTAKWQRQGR
Chain of 168 GPCRs (Homo sapiens, UniProt Q9H244) (Q9H244 whole entry): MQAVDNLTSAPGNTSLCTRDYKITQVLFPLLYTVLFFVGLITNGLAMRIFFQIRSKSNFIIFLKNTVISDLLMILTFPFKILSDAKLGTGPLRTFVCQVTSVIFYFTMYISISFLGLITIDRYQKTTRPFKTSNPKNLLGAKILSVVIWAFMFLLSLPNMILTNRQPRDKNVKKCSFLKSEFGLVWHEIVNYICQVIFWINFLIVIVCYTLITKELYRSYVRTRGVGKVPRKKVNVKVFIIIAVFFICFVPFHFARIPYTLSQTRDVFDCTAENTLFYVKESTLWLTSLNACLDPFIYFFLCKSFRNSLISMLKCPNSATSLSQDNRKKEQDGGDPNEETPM

CNC(C)C(=O)c1ccc2c(c1)OCO2 (centres unmarked) [methylone, 3,4-methylenedioxy-N-methylcathinone]
activity at 10 µM (168 GPCRs [1]; SSTR1, Antagonist mode, 10 uM): 20.9%
activity at 1 µM (168 GPCRs [1]; SSTR1, Antagonist, 1 uM): 32.4%
activity at 1 µM (168 GPCRs [2]; 1 uM): 8.9%
activity at 10 µM (168 GPCRs [2]; 10 uM): 5%
activity at 10 µM (168 GPCRs [3]; CXCR1, Antagonist mode, 10 uM): 3.1%
activity at 1 µM (168 GPCRs [3]; CXCR1, Antagonist, 1 uM): 12.1%
activity at 10 µM (168 GPCRs [4]; Antagonist mode, 10 uM): -9.3%
activity at 1 µM (168 GPCRs [4]; Antagonist, 1 uM): -6.7%
activity at 10 µM (168 GPCRs [5]; PTHR1, Antagonist mode, 10 uM): -8.3%
activity at 1 µM (168 GPCRs [5]; PTHR1, Antagonist, 1 uM): 2.2%
activity at 10 µM (168 GPCRs [6]; Antagonist mode, 10 uM): -8.4%
activity at 1 µM (168 GPCRs [6]; Antagonist, 1 uM): -11.8%
activity at 10 µM (168 GPCRs [7]; Antagonist mode, 10 uM): -11.3%
activity at 1 µM (168 GPCRs [7]; Antagonist, 1 uM): -2.4%
activity at 10 µM (168 GPCRs [8]; Antagonist mode, 10 uM): -0.9%
activity at 1 µM (168 GPCRs [8]; Antagonist, 1 uM): 3.4%
activity at 1 µM (168 GPCRs [9]; 1 uM): 2.8%
activity at 10 µM (168 GPCRs [9]; 10 uM): 12.1%
activity at 10 µM (168 GPCRs [10]; P2RY6, Antagonist mode, 10 uM): 2.6%
activity at 1 µM (168 GPCRs [10]; P2RY6, Antagonist, 1 uM): 6.5%
activity at 10 µM (168 GPCRs [11]; P2RY11, Antagonist mode, 10 uM): 6.6%
activity at 1 µM (168 GPCRs [11]; P2RY11, Antagonist, 1 uM): 2.7%
activity at 10 µM (168 GPCRs [12]; GPR120, Antagonist mode, 10 uM): 40.3%
activity at 1 µM (168 GPCRs [12]; GPR120, Antagonist, 1 uM): 46.5%
activity at 10 µM (168 GPCRs [13]; P2RY12, Antagonist mode, 10 uM): -10.4%
activity at 1 µM (168 GPCRs [13]; P2RY12, Antagonist, 1 uM): -14.8%
activity at 1 µM (168 GPCRs [14]; 1 uM): -1.1%
activity at 10 µM (168 GPCRs [14]; 10 uM): -2.4%
activity at 1 µM (168 GPCRs [15]; 1 uM): 10%
activity at 10 µM (168 GPCRs [15]; 10 uM): 1.4%
activity at 1 µM (168 GPCRs [16]; 1 uM): -3.3%
activity at 10 µM (168 GPCRs [16]; 10 uM): -4.1%
activity at 1 µM (168 GPCRs [17]; 1 uM): 10%
activity at 10 µM (168 GPCRs [17]; 10 uM): 9.5%
activity at 10 µM (168 GPCRs [18]; P2RY4, Antagonist mode, 10 uM): 17.5%
activity at 1 µM (168 GPCRs [18]; P2RY4, Antagonist, 1 uM): 15.1%
activity at 10 µM (168 GPCRs [19]; Antagonist mode, 10 uM): 14.5%
activity at 1 µM (168 GPCRs [19]; Antagonist, 1 uM): 28.7%
